Data published in patent publication US6830760B2, “Glyburide composition” (Bristol-Myers Squibb Company, priority 2000, dated 2004).

Test: Glyburide particle size by laser light scattering / laser diffraction
Assay type: physicochemical
Conditions: drug substance, laser diffraction particle size analysis
Protocol: Data from studies with metformin hydrochloride/glyburide tablets formulated with glyburide of different particle size characteristics allowed for the development of a correlation between glyburide particle size and the in vivo performance. The desired particle size distribution may be obtained by sieving or, preferably, air jet milling, and was measured by a laser light scattering method. The particle size measurement method of laser light scattering uses drug substance dispersed in liquid paraffin for introduction into the measurement cell. The apparatus produces a volume based, cumulative size distribution. […] The mill was operated with a Venturi nitrogen pressure of approximately 1.5 atmospheres and a micronization chamber pressure of 4 atmospheres. Size reduction was not allowed to proceed to the extent normally employed to make glyburide that would be described as micronized. The mill was turned off and the drug substance was discharged from it. A sample of the size-reduced glyburide was evaluated by a laser diffraction particle size analysis method.

Row | Structure (SMILES) | D25% | D50% | D75%
1 | COc1ccc(Cl)cc1C(=O)NCCc1ccc(S(=O)(=O)NC(=O)NC2CCCCC2)cc1 [Example 1, 5-chloro-N-[2-[4-[[[(cyclohexylamino)-carbonyl]amino]sulfonyl]phenyl]ethyl]-2-methoxybenzamide] | 5 microns | 9 microns | 21 microns
2 | COc1ccc(Cl)cc1C(=O)NCCc1ccc(S(=O)(=O)NC(=O)NC2CCCCC2)cc1 [commercially available micronized sample] | 2.8 microns | 4.5 microns | 7.3 microns
